Values quoted from earlier work, collected in patent publication US20160317662A1, “STABLE ORAL PHARMACEUTICAL COMPOSITION” (H[…].A., priority 2013, published 2016).

Conditions: aqueous solutions; state of the art

Which “pH around which solutions are relatively stable” value does the source give for `COc1ccc2c3c1O[C@H]1[C@@H](O)C=C[C@H]4C(C2)N(C)CC[C@@]341` [codeine, codein phosphate hemihydrate] here?
Its value is about 3.5.
